What is called IC50 is the midpoint of a concentration-inhibition curve.

This assay deals with T1, Recombinant human HSD17B13 enzyme (Homo sapiens, UniProt Q7Z5P4).
T1 sequence (Q7Z5P4 20-300): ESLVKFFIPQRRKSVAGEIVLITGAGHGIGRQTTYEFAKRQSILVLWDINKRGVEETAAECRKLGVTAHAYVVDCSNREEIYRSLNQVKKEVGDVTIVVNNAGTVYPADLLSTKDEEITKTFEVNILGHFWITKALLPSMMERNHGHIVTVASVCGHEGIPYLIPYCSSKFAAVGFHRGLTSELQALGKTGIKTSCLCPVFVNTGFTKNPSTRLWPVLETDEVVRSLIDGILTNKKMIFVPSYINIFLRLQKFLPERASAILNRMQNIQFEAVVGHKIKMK
Briefly: HSD17b13 NAD(P)H-Glo biochemical assay. The following applies: 50 uM estradiol, 1 mM NAD+, NAD(P)H-Glo luminescence; read-out: HSD17β13 IC50. The essentials: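 Luminescent NAD(P)H-Glo read-out, taken after 1 hour at RT, measured cofactor reduction. Substrate and cofactor were estradiol at 50 uM and NAD+ at 1 mM final, reacted with the recombinant human enzyme for 3 hours at 37° C in 20 mM Tris pH7.4, 0.002% Tween-20, 0.02% BSA. Compound was pre-incubated with enzyme for 20 minutes at RT.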

As to `CC(C)N1CCN(c2cc3c(cn2)c(-c2cc(C(F)(F)F)c(F)c(O)c2F)nn3C)CC1=O` [Compound 9.63, 4-(3-(2,4-Difluoro-3-hydroxy-5-(trifluoromethyl)phenyl)-1-methyl-1H-pyrazolo[4,3-c]pyridin-6-yl)-1-isopropylpiperazin-2-one], the IC50 is less than 100 nM.
`CN(CC1CCOCC1)c1cc2c(cn1)c(-c1cc(C(F)(F)F)c(F)c(O)c1F)nn2C` [Compound 9.64, 2,6-Difluoro-3-(1-methyl-6-(methyl((tetrahydro-2H-pyran-4-yl)methyl)amino)-1H-pyrazolo[4,3-c]pyridin-3-yl)-5-(trifluoromethyl)phenol]: the IC50 is less than 100 nM.
To `CN(C)C(=O)C1CN(c2cc3c(cn2)c(-c2cc(C(F)(F)F)c(F)c(O)c2F)nn3C)CCO1` (stereo not drawn) [Compound 9.65, 4-(3-(2,4-Difluoro-3-hydroxy-5-(trifluoromethyl)phenyl)-1-methyl-1H-pyrazolo[4,3-c]pyridin-6-yl)-N,N-dimethylmorpholine-2-carboxamide] belongs 100 to 1000 nM; to `CC(=O)N1CCC(N(C)c2cc3c(cn2)c(-c2cc(C(F)(F)F)c(F)c(O)c2F)nn3C)CC1` [Compound 9.66, 1-(4-((3-(2,4-Difluoro-3-hydroxy-5-(trifluoromethyl)phenyl)-1-methyl-1H-pyrazolo[4,3-c]pyridin-6-yl)(methyl)amino)piperidin-1-yl)ethanone], less than 100 nM.
For the compound `Cn1nc(-c2cc(C(F)(F)F)c(F)c(O)c2F)c2cnc(N3CCOCC3C3CCC3)cc21` (stereo not drawn) [Compound 9.67, 3-(6-(3-Cyclobutylmorpholino)-1-methyl-1H-pyrazolo[4,3-c]pyridin-3-yl)-2,6-difluoro-5-(trifluoromethyl)phenol], the IC50 was less than 100 nM.
Regarding `CN1CCN(c2cc3c(cn2)c(-c2cc(C(F)(F)F)c(F)c(O)c2F)nn3C)CC1=O` [Compound 9.68, 4-(3-(2,4-Difluoro-3-hydroxy-5-(trifluoromethyl)phenyl)-1-methyl-1H-pyrazolo[4,3-c]pyridin-6-yl)-1-methylpiperazin-2-one], the IC50 was less than 100 nM.
On to `Cn1nc(-c2cc(C(F)(F)F)c(F)c(O)c2F)c2cnc(N3CCCOCC34CC4)cc21` [Compound 9.69, 2,6-Difluoro-3-(1-methyl-6-(8-oxa-4-azaspiro[2.6]nonan-4-yl)-1H-pyrazolo[4,3-c]pyridin-3-yl)-5-(trifluoromethyl)phenol], for which the IC50 is less than 100 nM.
Take `Cn1nc(-c2cc(C(F)(F)F)c(F)c(O)c2F)c2cnc(N3CCOCCC34CC4)cc21` [Compound 9.70, 2,6-Difluoro-3-(1-methyl-6-(7-oxa-4-azaspiro[2.6]nonan-4-yl)-1H-pyrazolo[4,3-c]pyridin-3-yl)-5-(trifluoromethyl)phenol]: the IC50 was less than 100 nM.
With `Oc1c(F)c(-c2nn(C3CCCOC3)c3nc(N4CCOCC45CC5)ccc23)cc(C(F)(F)F)c1F` (stereo not drawn) [Compound 9.71, 3-(6-(7-Oxa-4-azaspiro[2.5]octan-4-yl)-1-(tetrahydro-2H-pyran-3-yl)-1H-pyrazolo[3,4-b]pyridin-3-yl)-2,6-difluoro-5-(trifluoromethyl)phenol], the IC50 lay within 100 to 1000 nM.
As for `COCCn1nc(-c2cc(C(F)(F)F)c(F)c(O)c2F)c2ccc(N3CCOCC34CC4)nc21` [Compound 9.72, 2,6-Difluoro-3-(1-(2-methoxyethyl)-6-(7-oxa-4-azaspiro[2.5]octan-4-yl)-1H-pyrazolo[3,4-b]pyridin-3-yl)-5-(trifluoromethyl)phenol], the IC50 is less than 100 nM.
To `COCCn1nc(-c2cc(C(F)(F)F)c(F)c(O)c2F)c2cnc(N3CCOCC34CC4)cc21` [Compound 9.73, 2,6-Difluoro-3-(1-(2-methoxyethyl)-6-(7-oxa-4-azaspiro[2.5]octan-4-yl)-1H-pyrazolo[4,3-c]pyridin-3-yl)-5-(trifluoromethyl)phenol] belongs less than 100 nM; to `Cn1nc(-c2cc(C(F)(F)F)c(F)c(O)c2F)c2cnc(N3CCN(S(C)(=O)=O)CC34CC4)cc21` [Compound 9.74, 2,6-Difluoro-3-(1-methyl-6-(7-(methylsulfonyl)-4,7-diazaspiro[2.5]octan-4-yl)-1H-pyrazolo[4,3-c]pyridin-3-yl)-5-(trifluoromethyl)phenol], less than 100 nM.
To `COC1CCN(c2cc3c(cn2)c(-c2cc(C(F)(F)F)c(F)c(O)c2F)nn3C)C2(CCC2)C1` (stereo not drawn) [Compound 9.75, 2,6-Difluoro-3-(6-(8-methoxy-5-azaspiro[3.5]nonan-5-yl)-1-methyl-1H-pyrazolo[4,3-c]pyridin-3-yl)-5-(trifluoromethyl)phenol] belongs less than 100 nM; to `Cn1nc(-c2cc(C(F)(F)F)c(F)c(O)c2F)c2cnc(N3CCOCC3C3CCOCC3)cc21` (stereo not drawn) [Compound 9.76, 2,6-Difluoro-3-(1-methyl-6-(3-(tetrahydro-2H-pyran-4-yl)morpholino)-1H-pyrazolo[4,3-c]pyridin-3-yl)-5-(trifluoromethyl)phenol], less than 100 nM; to `COCC1CN(c2cc3c(cn2)c(-c2cc(C(F)(F)F)c(F)c(O)c2F)nn3C)CCO1` (stereo not drawn) [Compound 9.77, 2,6-Difluoro-3-(6-(2-(methoxymethyl)morpholino)-1-methyl-1H-pyrazolo[4,3-c]pyridin-3-yl)-5-(trifluoromethyl)phenol], less than 100 nM.
As to `Cn1nc(-c2cc(C(F)(F)F)c(F)c(O)c2F)c2cnc(N3CCOC4(CCC4)C3)cc21` [Compound 9.78, 2,6-Difluoro-3-(1-methyl-6-(5-oxa-8-azaspiro[3.5]nonan-8-yl)-1H-pyrazolo[4,3-c]pyridin-3-yl)-5-(trifluoromethyl)phenol], the IC50 was less than 100 nM.
The result for `Cn1nc(-c2cc(C(F)(F)F)c(F)c(O)c2F)c2cnc(N3CCN(C(=O)O)C(=O)C3)cc21` [Compound 9.79, 4-(3-(2,4-Difluoro-3-hydroxy-5-(trifluoromethyl)phenyl)-1-methyl-1H-pyrazolo[4,3-c]pyridin-6-yl)-2-oxopiperazine-1-carboxylic acid] reads 1000 to 30000 nM.
For the compound `CNC(=O)C1CN(c2cc3c(cn2)c(-c2cc(C(F)(F)F)c(F)c(O)c2F)nn3C)CCO1` (stereo not drawn) [Compound 9.80, 4-(3-(2,4-Difluoro-3-hydroxy-5-(trifluoromethyl)phenyl)-1-methyl-1H-pyrazolo[4,3-c]pyridin-6-yl)-N-methylmorpholine-2-carboxamide], the IC50 was less than 100 nM.
The result for `Cn1nc(-c2cc(C(F)(F)F)c(F)c(O)c2F)c2cc(F)c(N3CCOCC34CC4)nc21` [Compound 9.81, 2,6-Difluoro-3-(5-fluoro-1-methyl-6-(7-oxa-4-azaspiro[2.5]octan-4-yl)-1H-pyrazolo[3,4-b]pyridin-3-yl)-5-(trifluoromethyl)phenol] reads less than 100 nM; that for `Cn1nc(-c2cc(C(F)(F)F)c(F)c(O)c2F)c2cnc(N3CCOC4(CCOCC4)C3)cc21` [Compound 9.82, 2,6-Difluoro-3-(1-methyl-6-(1,9-dioxa-4-azaspiro [5.5]undecan-4-yl)-1H-pyrazolo[4,3-c]pyridin-3-yl)-5-(trifluoromethyl)phenol], less than 100 nM; that for `COC1CCN(c2cc3c(cn2)c(-c2cc(C(F)(F)F)c(F)c(O)c2F)nn3C)C2(CC2)C1` (stereo not drawn) [Compound 9.83, 2,6-Difluoro-3-(6-(7-methoxy-4-azaspiro[2.5]octan-4-yl)-1-methyl-1H-pyrazolo[4,3-c]pyridin-3-yl)-5-(trifluoromethyl)phenol], less than 100 nM.
With `Cn1nc(-c2cc(C(F)(F)F)c(F)c(O)c2F)c2cnc(N3CCOCC34CCCC4)cc21` [Compound 9.84, 2,6-Difluoro-3-(1-methyl-6-(9-oxa-6-azaspiro[4.5]decan-6-yl)-1H-pyrazolo[4,3-c]pyridin-3-yl)-5-(trifluoromethyl)phenol], the IC50 is less than 100 nM.
Take `Cn1nc(-c2cc(C(F)(F)F)c(F)c(O)c2F)c2cnc(N3CCC(C(N)=O)CC34CC4)cc21` (stereo not drawn) [Compound 9.85, 4-(3-(2,4-Difluoro-3-hydroxy-5-(trifluoromethyl)phenyl)-1-methyl-1H-pyrazolo[4,3-c]pyridin-6-yl)-4-azaspiro[2.5]octane-7-carboxamide]: the IC50 fell in the range of 100 to 1000 nM.
As for `COC1(CN(C)c2cc3c(cn2)c(-c2cc(C(F)(F)F)c(F)c(O)c2F)nn3C)CCC1` [Compound 9.86, 2,6-Difluoro-3-(6-(((1-methoxycyclobutyl)methyl)(methyl)amino)-1-methyl-1H-pyrazolo[4,3-c]pyridin-3-yl)-5-(trifluoromethyl)phenol], the IC50 is less than 100 nM.
`CC(=O)N1CCN(c2cc3c(cn2)c(-c2cc(C(F)(F)F)c(F)c(O)c2F)nn3C)C2(CC2)C1` [Compound 9.87, 1-(4-(3-(2,4-Difluoro-3-hydroxy-5-(trifluoromethyl)phenyl)-1-methyl-1H-pyrazolo[4,3-c]pyridin-6-yl)-4,7-diazaspiro[2.5]octan-7-yl)ethanone]: the IC50 was less than 100 nM.
On to `Cn1nc(-c2cc(C(F)(F)F)c(F)c(O)c2F)c2cnc(N3CCOC4(CCS(=O)(=O)CC4)C3)cc21` [Compound 9.88, 4-(3-(2,4-Difluoro-3-hydroxy-5-(trifluoromethyl)phenyl)-1-methyl-1H-pyrazolo[4,3-c]pyridin-6-yl)-1-oxa-9-thia-4-azaspiro[5.5]undecane 9,9-dioxide], for which the IC50 was less than 100 nM.
With `Cn1nc(-c2cc(C(F)(F)F)c(F)c(O)c2F)c2cnc(N3CCOC(C)(C#N)C3)cc21` (stereo not drawn) [Compound 9.89, 4-(3-(2,4-Difluoro-3-hydroxy-5-(trifluoromethyl)phenyl)-1-methyl-1H-pyrazolo[4,3-c]pyridin-6-yl)-2-methylmorpholine-2-carbonitrile], the IC50 was less than 100 nM.

Values taken from US20240083861A1, “HSD17B13 INHIBITORS AND USES THEREOF” (FL2022-001, Inc., priority 2020, published 2024).
